We go through one molecule from publication PMC9080521, “Molecular basis of rutin inhibition of protein disulfide isomerase (PDI) by combined in silico and experimental methods” (RSC Advances, 2018).

≈ marks a conversion by molar mass, not a printed value. Where “and” joins values, the source holds several entries; their conditions need not be identical. Equal values may be shown once.

One series has as its target T1, wt MBP-PDI-b′xa′ (Homo sapiens, UniProt P07237).
T1 construct: MBP-PDI-b′xa′(235–479); His-tag; made in house; host or cells: E. coli BL21 (DE3)
As to the kind of experiment: Isothermal titration calorimetry (ITC). In kind it is binding. The settings on record: 25 °C. The protocol:
(§1) Microcalorimetry titration of rutin to PDI recombinant and mutant proteins used a MicroCal ITC200 microcalorimeter (GE Healthcare). PDI recombinant proteins, which concentration ranges from 25 μM to 50 μM, were added into the cell (about 300 μL). Rutin, with concentration ranging from 500 μM to 1 mM, was injected from syringe to titrate the protein in cell (almost 40 μL). The experiment was performed at 25 °C with a equilibration time of 10 min, the reference power was set to 6.25 μcal s^−1. The process including 25 injections, each of 1, 2 or 2.5 μL rutin, in a duration of 3 s, and the interval time between two injections was 180 s. Data was analyzed with MicroCal Origin (MicroCal).
(§2) Next, we resorted to a more sensitive method, isothermal titration calorimetry (ITC), to measure the direct binding. Due to the weak interaction, this method requires large amounts of high-purity protein samples (about 240 μL at 20–50 μM) to be titrated by the highest concentration of rutin (its water solubility of about 200 μM), so that the release of heat as a result of complex formation reached plateau phase rapidly and was enough to be measured. A problem we encountered is that the starting phase of the S-shape curve of heat measurement cannot always be resolved using the typical titration program of ITC, thus affecting the accuracy of dissociation constant (Kd) measurement from the S-shape ITC curve. This was due to the use of equal volume of small molecule titrant (∼2.5 μL) used in the typical ITC titration. Therefore, we established an optimized ITC titration scheme by using variable drop sizes, which started with small drops (1 μL at first ten times of injection) and ended with large drops (2 μL). We thus obtained S-shape ITC curves with well-defined upper and lower platforms (Fig. 5 and S6 ^†), which allowed the accurate measurements of Kd values.
For orientation: In ITC the heat of successive injections is recorded.

For the next series, the target named is T2, MBP-PDI-b′xa′ K328E (Homo sapiens, UniProt P07237, K328E).
T2 construct: MBP-PDI-b′xa′(235–479); His-tag; made in house; host or cells: E. coli BL21 (DE3)
T2 sequence (P07237 235-479 K328E): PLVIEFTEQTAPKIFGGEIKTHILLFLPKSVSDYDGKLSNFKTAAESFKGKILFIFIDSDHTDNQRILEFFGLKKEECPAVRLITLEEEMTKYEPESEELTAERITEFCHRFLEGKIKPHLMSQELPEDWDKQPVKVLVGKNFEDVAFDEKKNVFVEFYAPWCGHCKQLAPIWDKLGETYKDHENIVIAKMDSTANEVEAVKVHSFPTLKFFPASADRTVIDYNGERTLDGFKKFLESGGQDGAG
As to the kind of experiment: Isothermal titration calorimetry (ITC). In kind it is binding. The settings on record: 25 °C. The protocol: as §1, §2

In another series the target is T3, MBP-PDI-b′xa′ E359A (Homo sapiens, UniProt P07237, E359A).
T3 construct: MBP-PDI-b′xa′(235–479); His-tag; made in house; host or cells: E. coli BL21 (DE3)
T3 sequence (P07237 235-479 E359A): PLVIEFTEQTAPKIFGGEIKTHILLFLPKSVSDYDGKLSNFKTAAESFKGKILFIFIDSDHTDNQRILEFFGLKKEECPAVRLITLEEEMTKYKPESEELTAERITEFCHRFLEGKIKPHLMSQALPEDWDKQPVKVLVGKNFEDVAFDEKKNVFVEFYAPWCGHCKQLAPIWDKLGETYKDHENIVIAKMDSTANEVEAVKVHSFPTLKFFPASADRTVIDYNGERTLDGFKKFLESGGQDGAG
Nature of the series: Isothermal titration calorimetry (ITC). Type of series: binding. The following applies: 25 °C. The protocol:
as §1, §2

A further series deals with T4, MBP-PDI-b′xa′ E359K (Homo sapiens, UniProt P07237, E359K).
T4 construct: MBP-PDI-b′xa′(235–479); His-tag; made in house; host or cells: E. coli BL21 (DE3)
T4 sequence (P07237 235-479 E359K): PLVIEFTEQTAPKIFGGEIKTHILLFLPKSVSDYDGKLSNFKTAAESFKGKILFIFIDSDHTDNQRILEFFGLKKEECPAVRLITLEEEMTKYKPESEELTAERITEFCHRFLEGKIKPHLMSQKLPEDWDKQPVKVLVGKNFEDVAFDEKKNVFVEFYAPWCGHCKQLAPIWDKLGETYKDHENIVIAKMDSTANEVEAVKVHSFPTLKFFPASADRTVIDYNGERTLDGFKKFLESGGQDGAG
As to the kind of experiment: Isothermal titration calorimetry (ITC). In kind it is binding. The settings on record: 25 °C. The procedure:
as §1, §2

The target of a further series is T5, MBP-PDI-b′xa′ H354A (Homo sapiens, UniProt P07237, H354A).
T5 construct: MBP-PDI-b′xa′(235–479); His-tag; made in house; host or cells: E. coli BL21 (DE3)
T5 sequence (P07237 235-479 H354A): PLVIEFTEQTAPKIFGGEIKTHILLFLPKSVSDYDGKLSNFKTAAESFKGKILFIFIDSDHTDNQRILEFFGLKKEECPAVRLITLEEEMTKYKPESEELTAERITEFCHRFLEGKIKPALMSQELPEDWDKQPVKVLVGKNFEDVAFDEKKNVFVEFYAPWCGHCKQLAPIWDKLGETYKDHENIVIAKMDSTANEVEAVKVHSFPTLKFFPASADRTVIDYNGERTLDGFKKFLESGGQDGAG
Nature of the series: Isothermal titration calorimetry (ITC). Type of series: binding. The procedure:
as §1, §2

The target of another series is T6, MBP-PDI-b′xa′ L355R (Homo sapiens, UniProt P07237, L355R).
T6 construct: MBP-PDI-b′xa′(235–479); His-tag; made in house; host or cells: E. coli BL21 (DE3)
T6 sequence (P07237 235-479 L355R): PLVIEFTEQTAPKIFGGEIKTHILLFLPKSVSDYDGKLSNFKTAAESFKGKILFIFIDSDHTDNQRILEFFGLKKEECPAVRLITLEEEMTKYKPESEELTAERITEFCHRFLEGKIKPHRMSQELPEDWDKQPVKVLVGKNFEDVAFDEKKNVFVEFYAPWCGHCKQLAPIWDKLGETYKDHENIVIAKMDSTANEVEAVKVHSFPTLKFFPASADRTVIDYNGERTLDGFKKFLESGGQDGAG
As to the kind of experiment: Isothermal titration calorimetry (ITC). Type of series: binding. The settings on record: 25 °C. The procedure:
as §1, §2

The test system of the next series is ERp72. Also noted: method as in PMID 22565308. The settings on record: cited from earlier work.
In another series the target is murine proteins (mPDI) (Mus musculus, UniProt P09103). As to the kind of experiment: Fluorescence-based direct binding assay, murine proteins as a group. The settings on record: murine MBP-mPDI proteins, read-out: binding affinities of murine proteins (IC50). The procedure: 2. Binding affinity (IC50) of rutin to human or murine MBP-fused PDI proteins The MBP-fused PDI proteins (18 μМ) were incubated with a gradient of 10 rutin’s concentrations differed by 2- or 3-fold and 3 repetitions in 384-well black plate at room temperature for 30 min before measurements. The total assay volume was filled to 100 μL using the assay buffer (pH 7.4) contains 150 mM NaCl, 20 mM Tris, 1 mM EDTA, 1 mM β-ME and 5% glycerin. The fluorescence emission spectrum of the mixture were measured with the excitation at 430 nm and the emission at 530 nm at room temperature on a BioTek Synergy microplate reader with a sensitivity of 100. The data were analyzed by GraphPad Prism (Fig. S3).
Chain of murine proteins (mPDI) (P09103 236-369): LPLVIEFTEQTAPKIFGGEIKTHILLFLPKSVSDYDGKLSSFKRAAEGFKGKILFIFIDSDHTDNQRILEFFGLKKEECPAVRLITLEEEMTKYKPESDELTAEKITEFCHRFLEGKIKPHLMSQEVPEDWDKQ

Series [1] concerns MBP (MBP-PNGase, MBP-SpoIVB, MBP-MOC1). As to the kind of experiment: Fluorescence measurement with MBP-fusion control proteins. Type of series: binding. The settings on record: rutin 55 μM, MBP-fusion proteins 18 μM, excitation 430 nm. The protocol:
The relevant recombinant proteins were incubated with rutin in black 384-well plate at room temperature for 30 min before measurements. The concentrations of proteins were always kept at 18 μM and rutin was 55 μM. The total assay volume was filled to 100 μL using the protein buffer (pH 7.4). The fluorescence emission spectrum of every mixture were measured with the excitation at 430 nm and the emission at 460 nm at room temperature on a BioTek Synergy microplate reader with a sensitivity of 100 or 120 and measurements of per data with 100 times. […]
presence of three different MBP-fusion proteins. The MBP-fusion proteins (MBP-PNGase protein (gray dash-dot line), MBP-SpoIVB protein (gray dash line) and MBP-MOC1 protein […]
at 430 nm. Addition of rutin (55 μМ) to these proteins (MBP-PNGase in black solid line, MBP-SpoIVB in black dash line and MBP-MOC1 in black dot line) gave the signals almost identical to rutin itself (gray solid), which has a maximum fluorescence at 550 nm.
(1 picture or pasted object on this page, not shown here)

A further series is described as follows: Water solubility. In kind it is physicochemical.
In the next series the test system is PDI. Also on record: method as in PMID 22565308, PMID 26240139. The following applies: dose-dependent; cited from earlier work.
The subject of another series is ERp5. Also noted: method as in PMID 22565308. The settings on record: cited from earlier work.
In another series the test system is ERp57. Also on record: method as in PMID 22565308. The following applies: cited from earlier work.

T1 sequence (P07237 235-480): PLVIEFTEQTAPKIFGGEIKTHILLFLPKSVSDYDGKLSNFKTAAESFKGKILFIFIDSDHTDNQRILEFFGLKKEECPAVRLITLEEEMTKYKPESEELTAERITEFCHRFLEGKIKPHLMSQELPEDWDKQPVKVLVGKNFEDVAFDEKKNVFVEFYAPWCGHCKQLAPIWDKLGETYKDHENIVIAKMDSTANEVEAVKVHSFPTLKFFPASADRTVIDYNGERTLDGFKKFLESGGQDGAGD

As a reminder, the Kd is the free concentration of one partner at which half of the binding sites on the other are occupied at equilibrium, for simple one-to-one binding. Broadly, the IC50 is the concentration at which inhibition is half-maximal. One may read the solubility as how much of the substance goes into solution per volume. Read a low solubility as a poorly soluble substance. Turning to `C[C@@H]1O[C@@H](OC[C@H]2O[C@@H](Oc3c(-c4ccc(O)c(O)c4)oc4cc(O)cc(O)c4c3=O)[C@H](O)[C@@H](O)[C@@H]2O)[C@H](O)[C@H](O)[C@H]1O` [rutin], the equilibrium dissociation constant (Kd) on wt MBP-PDI-b′xa′ is 2310 nM and 2390 nM; on MBP-PDI-b′xa′ K328E it was 2290 ± 360 nM; at MBP-PDI-b′xa′ E359A it was 4.1 ± 0.74 µM; at MBP-PDI-b′xa′ E359K, 4.48 ± 0.58 µM; at MBP-PDI-b′xa′ H354A (ITC, 25 °C, H354A), 5.98 ± 1.08 µM; on MBP-PDI-b′xa′ L355R it was 3.5 ± 0.39 µM. The “N (stoichiometry ratio)” value was found to be 0.86 ± 0.02 on MBP-PDI-b′xa′ K328E; 1.18 ± 0.03 on MBP-PDI-b′xa′ E359A; 1.21 ± 0.02 at MBP-PDI-b′xa′ E359K; 0.72 ± 0.03 at MBP-PDI-b′xa′ H354A (ITC, 25 °C, H354A); 1.93 ± 0.03 on MBP-PDI-b′xa′ L355R. In addition, the ΔG was -7.72 ± 0.31 kcal/mol on MBP-PDI-b′xa′ K328E; -7.39 ± 0.49 kcal/mol on MBP-PDI-b′xa′ E359A; -7.31 ± 0.45 kcal/mol at MBP-PDI-b′xa′ E359K; -7.15 ± 0.86 kcal/mol on MBP-PDI-b′xa′ H354A (ITC, 25 °C, H354A); -7.46 ± 0.23 kcal/mol at MBP-PDI-b′xa′ L355R. At MBP-PDI-b′xa′ H354A (ITC Kd 5.98 vs 2.39 μM), the “decrease of binding to H354A mutant compared with wt MBP-PDI-b′xa′” value was “about 3 times”. Besides, the “inhibition of ERp72” value with ERp72 is “did not inhibit”. The half-maximal inhibitory concentration (IC50) on murine proteins (mPDI) was approximately 30 µM. For the same molecule, the “binding to MBP” value in series [1] was “does not bind”. The molecule also showed a solubility in “Water solubility” of approximately 200 µM (≈ 122 µg/mL). For the same molecule, the “IC50 of inhibition of PDI activities” value in the series with PDI is reported as “micromolar range”. Moreover, the “inhibition of ERp5” value in the series on ERp5 is “did not inhibit”. Further, in the series on ERp57, the “inhibition of ERp57” value was “did not inhibit”.
